According to US10774086B2, “GSK-3 inhibitors” (BRISTOL-MYERS SQUIBB COMPANY, priority 2016, dated 2020):

Experiments:
GSK3β = GSK3β (Homo sapiens (Human), UniProt P49841); experiment: GSK3β kinase assay (Caliper LabChip, fluoresceinated peptide substrate); type: biochemical; conditions: 250 pM enzyme, 20 uM ATP, 1.5 uM peptide, 20 hours room temperature; read-out: GSK3β IC50 (first value of GSK3β/GSK3α)
Description: The kinase assay was performed in V-bottom 384-well plates. […] The reaction was incubated at room temperature for 20 hours and terminated by adding 45 μl of 35 mM EDTA to each sample. The reaction mixture was analyzed on the Caliper LabChip3000 (Caliper, Hopkinton, Mass.) by electrophoretic separation of the unphosphorylated substrate and phosphorylated product. […] Compounds were dissolved at 10 mM in dimethylsulfoxide (DMSO) and evaluated at eleven concentrations. IC50 values were derived by non-linear regression analysis.

GSK3α = GSK3α (Homo sapiens (Human), UniProt P49840); experiment: GSK3α kinase assay (Caliper LabChip, fluoresceinated peptide substrate); type: biochemical; conditions: 250 pM enzyme, 20 uM ATP, 1.5 uM peptide, 20 hours room temperature; read-out: GSK3α IC50 (second value of GSK3β/GSK3α)
Description: IC50 values were derived by non-linear regression analysis.

pTau = pTau assay; type: cell-based

Sequence of GSK3β (P49841 whole entry, species assumed): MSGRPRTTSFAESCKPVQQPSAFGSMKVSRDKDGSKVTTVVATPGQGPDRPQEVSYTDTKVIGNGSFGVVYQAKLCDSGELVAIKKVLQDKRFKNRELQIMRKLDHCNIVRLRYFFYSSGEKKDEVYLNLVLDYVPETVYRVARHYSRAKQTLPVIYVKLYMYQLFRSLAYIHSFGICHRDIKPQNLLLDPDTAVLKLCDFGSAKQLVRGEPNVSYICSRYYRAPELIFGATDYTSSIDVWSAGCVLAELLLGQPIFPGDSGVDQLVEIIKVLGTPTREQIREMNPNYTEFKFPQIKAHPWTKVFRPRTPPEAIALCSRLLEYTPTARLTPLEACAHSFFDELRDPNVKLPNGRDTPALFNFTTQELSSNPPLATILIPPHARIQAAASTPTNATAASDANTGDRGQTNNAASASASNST
Sequence of GSK3α (P49840 whole entry, species assumed): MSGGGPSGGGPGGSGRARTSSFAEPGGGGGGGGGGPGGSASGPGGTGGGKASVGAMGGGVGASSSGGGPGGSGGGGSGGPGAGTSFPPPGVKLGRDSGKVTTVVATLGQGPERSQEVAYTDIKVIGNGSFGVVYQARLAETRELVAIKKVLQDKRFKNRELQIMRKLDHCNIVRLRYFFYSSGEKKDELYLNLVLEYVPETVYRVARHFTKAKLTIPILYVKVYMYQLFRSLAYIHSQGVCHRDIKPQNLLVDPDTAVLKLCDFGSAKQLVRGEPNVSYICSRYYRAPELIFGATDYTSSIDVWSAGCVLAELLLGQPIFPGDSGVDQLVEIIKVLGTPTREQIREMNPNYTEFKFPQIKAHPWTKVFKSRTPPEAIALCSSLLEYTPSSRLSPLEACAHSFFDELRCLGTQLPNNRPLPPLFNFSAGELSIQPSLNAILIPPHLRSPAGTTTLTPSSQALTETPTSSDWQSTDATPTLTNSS

SMILES | IC50 (GSK3β) [nM] | IC50 (GSK3α) [nM] | IC50 (pTau) [nM]
CC(C)Oc1ccncc1NC(=O)c1ccnn2c(NC(=O)C3CC3)cnc12 [Example 46, 3-(Cyclopropanecarboxamido)-N-(4-isopropoxypyridin-3-yl)imidazo[1,2-b]pyridazine-8-carboxamide] | 6 | 51 | 5100
CCOc1ncncc1NC(=O)c1ccnn2cc(-c3ccccc3)nc12 [Example 37, N-(4-Ethoxypyrimidin-5-yl)-2-phenylimidazo[1,2-b]pyridazine-8-carboxamide] | 5.3 | 1 | 620
O=C(Nc1cccnc1)c1ccnn2c(NCC3CC3)cnc12 [Example 39, 3-((Cyclopropylmethyl)amino)-N-(pyridin-3-yl)imidazo[1,2-b]pyridazine-8-carboxamide] | 220 | 900 | > 10000
O=C(Nc1cnccc1-c1ccccc1)c1ccnn2c(NCC3CC3)cnc12 [Example 42, 3-((Cyclopropylmethyl)amino)-N-(4-phenylpyridin-3-yl)imidazo[1,2-b]pyridazine-8-carboxamide] | 3.4 | 3.2 | 320
COc1ccccc1-c1cn2nccc(C(=O)Nc3cnccc3N3CCOC(C)C3)c2n1 (stereo not drawn) [Example 24, 2-(2-Methoxyphenyl)-N-(4-(2-methylmorpholino)pyridin-3-yl)imidazo[1,2-b]pyridazine-8-carboxamide] | 0.6 | 0.4 | 79
CC1CN(c2ccncc2NC(=O)c2ccnn3cc(C4=CCCCC4)nc23)CCO1 (stereo not drawn) [Example 35, 2-(Cyclohex-1-en-1-yl)-N-(4-(2-methylmorpholino)pyridin-3-yl)imidazo[1,2-b]pyridazine-8-carboxamide] | 1.6 | 1 | 160
O=C(Nc1cnccc1-c1ccc(F)cc1)c1ccnn2cc(C3CC3)nc12 [Example 30, 2-Cyclopropyl-N-(4-(4-fluorophenyl)pyridin-3-yl)imidazo[1,2-b]pyridazine-8-carboxamide] | 1.9 | 0.4 | 380
O=C(Nc1cnc(Cl)cc1N1CCC(F)(F)CC1)c1ccnn2cc(-c3ccccc3)nc12 [Example 22, N-(6-Chloro-4-(4,4-difluoropiperidin-1-yl)pyridin-3-yl)-2-phenylimidazo[1,2-b]pyridazine-8-carboxamide] | 14 | 2.9 | 2000
O=C(Nc1cncnc1OCC(F)(F)F)c1ccnn2cc(-c3ccccc3)nc12 [Example 38, 2-Phenyl-N-(4-(2,2,2-trifluoroethoxy)pyrimidin-5-yl)imidazo[1,2-b]pyridazine-8-carboxamide] | 3.6 | 1 | 330

Further compounds by falling IC50 (GSK3β), results first:

IC50 (GSK3β) [nM] | IC50 (GSK3α) [nM] | IC50 (pTau) [nM] | SMILES
4.6 | 2 | 140 | O=C(Nc1cnccc1N1CCC(F)(F)CC1)c1ccnn2ccnc12 [Example 28, N-(4-(4,4-Difluoropiperidin-1-yl)pyridin-3-yl)imidazo[1,2-b]pyridazine-8-carboxamide]
1.1 | 0.3 | 160 | N#Cc1ccc(-c2ccncc2NC(=O)c2ccnn3cc(-c4ccccc4)nc23)cc1 [Example 8, N-(4-(4-Cyanophenyl)pyridin-3-yl)-2-phenylimidazo[1,2-b]pyridazine-8-carboxamide]
0.8 | 0.6 | 110 | COc1ccccc1-c1cn2nccc(C(=O)Nc3cnccc3N3CCC(F)(F)CC3)c2n1 [Example 23, N-(4-(4,4-Difluoropiperidin-1-yl)pyridin-3-yl)-2-(2-methoxyphenyl)imidazo[1,2-b]pyridazine-8-carboxamide]
0.6 | 0.2 | 140 | CC1CN(c2cc(F)ncc2NC(=O)c2ccnn3cc(-c4ccccc4)nc23)CCO1 (stereo not drawn) [Example 21, N-(6-fluoro-4-(2-methylmorpholino)pyridin-3-yl)-2-phenylimidazo[1,2-b]pyridazine-8-carboxamide]
0.3 | 0.3 | 5.7 | C[C@H]1COCCN1c1ccncc1NC(=O)c1ccnn2cc(-c3ccccc3)nc12 [Example 18, (S)—N-(4-(3-Methylmorpholino)pyridin-3-yl)-2-phenylimidazo[1,2-b]pyridazine-8-carboxamide]
